For data set [1], the system named is HUP-T3 pancreatic cancer cells. Put plainly: Cellular proliferation of HUP-T3 pancreatic cancer cells in vitro. The conditions noted are these: HUP-T3; treatment on day 1 for 5 h; measured after 7 days. The source says:
(§1) The aim of the study was to determine the effect of AP12009 (trabedersen) treatment in combination with 5-Fluorouracil (5-FU) on TGFβ2 secretion and on cellular proliferation of HUP-T3 pancreatic cancer cells and WiDr colon cancer cells in vitro.

In data set [2] the test system is TGFβ2. The data set can be described thus: TGFβ2 secretion/expression in HUP-T3 pancreatic cancer cells. It counts as cell-based.
From the text: as §1

For data set [3], the system named is WiDr colon cancer cells. The data set can be described thus: Cellular proliferation of WiDr colon cancer cells in vitro. Format: cell-based. The conditions noted are these: treatment on day 1 for 5 h only.
From the text: as §1

The test system of data set [4] is TGFβ2. The data set can be described thus: TGFβ2 secretion/expression in WiDr colon cancer cells. Format: cell-based.
From the text: as §1

For `O=c1[nH]cc(F)c(=O)[nH]1` [5-FU, 5-Fluorouracil, reference compound], the “5-FU concentrations that dose-dependently reduced cell proliferation” value in data set [1] is > 10 µM. Further, the “5-FU concentrations at which TGFβ2 was suppressed” value in data set [2] and in data set [4] was > 75 µM in each case. For the same compound, in data set [3], the “5-FU concentrations that concentration-dependently reduced cell proliferation” value was > 38 µM.

The record behind these values is patent US9963703B2, “Compositions and methods for treating pancreatic cancer” (Autotelic LLC, priority 2016, dated 2018).
